What all share (assay type): cell-based
Assay [1] deals with glutamate-activated channels of the GRIN1/2A subtype stably transfected in HEK 293 cells (Homo sapiens (Human), UniProt Q05586+Q12879). The assay is described as follows: Automated patch-clamp system (QPatch HTX), percent potentiation at 1 μM. As to conditions: HEK293, 1 μM test compound, 300 μM NMDA with 8 μM glycine, HEK 293 GRIN1/2A, read-out: GluN2A PCA % potentiation at 1 μM. The method, then: (§1) NMDA potentiation in mammalian cells which expressed NMDA receptors was assessed using the automatic patch-clamp system can be used determine the NAM activity of compounds as described below. An whole cell patch-clamp system can be used determine the PAM activity of compounds as described below.
Chain of glutamate-activated channels of the GRIN1/2A subtype stably transfected in HEK 293 cells (Q12879 whole entry, looked up, other chains not shown): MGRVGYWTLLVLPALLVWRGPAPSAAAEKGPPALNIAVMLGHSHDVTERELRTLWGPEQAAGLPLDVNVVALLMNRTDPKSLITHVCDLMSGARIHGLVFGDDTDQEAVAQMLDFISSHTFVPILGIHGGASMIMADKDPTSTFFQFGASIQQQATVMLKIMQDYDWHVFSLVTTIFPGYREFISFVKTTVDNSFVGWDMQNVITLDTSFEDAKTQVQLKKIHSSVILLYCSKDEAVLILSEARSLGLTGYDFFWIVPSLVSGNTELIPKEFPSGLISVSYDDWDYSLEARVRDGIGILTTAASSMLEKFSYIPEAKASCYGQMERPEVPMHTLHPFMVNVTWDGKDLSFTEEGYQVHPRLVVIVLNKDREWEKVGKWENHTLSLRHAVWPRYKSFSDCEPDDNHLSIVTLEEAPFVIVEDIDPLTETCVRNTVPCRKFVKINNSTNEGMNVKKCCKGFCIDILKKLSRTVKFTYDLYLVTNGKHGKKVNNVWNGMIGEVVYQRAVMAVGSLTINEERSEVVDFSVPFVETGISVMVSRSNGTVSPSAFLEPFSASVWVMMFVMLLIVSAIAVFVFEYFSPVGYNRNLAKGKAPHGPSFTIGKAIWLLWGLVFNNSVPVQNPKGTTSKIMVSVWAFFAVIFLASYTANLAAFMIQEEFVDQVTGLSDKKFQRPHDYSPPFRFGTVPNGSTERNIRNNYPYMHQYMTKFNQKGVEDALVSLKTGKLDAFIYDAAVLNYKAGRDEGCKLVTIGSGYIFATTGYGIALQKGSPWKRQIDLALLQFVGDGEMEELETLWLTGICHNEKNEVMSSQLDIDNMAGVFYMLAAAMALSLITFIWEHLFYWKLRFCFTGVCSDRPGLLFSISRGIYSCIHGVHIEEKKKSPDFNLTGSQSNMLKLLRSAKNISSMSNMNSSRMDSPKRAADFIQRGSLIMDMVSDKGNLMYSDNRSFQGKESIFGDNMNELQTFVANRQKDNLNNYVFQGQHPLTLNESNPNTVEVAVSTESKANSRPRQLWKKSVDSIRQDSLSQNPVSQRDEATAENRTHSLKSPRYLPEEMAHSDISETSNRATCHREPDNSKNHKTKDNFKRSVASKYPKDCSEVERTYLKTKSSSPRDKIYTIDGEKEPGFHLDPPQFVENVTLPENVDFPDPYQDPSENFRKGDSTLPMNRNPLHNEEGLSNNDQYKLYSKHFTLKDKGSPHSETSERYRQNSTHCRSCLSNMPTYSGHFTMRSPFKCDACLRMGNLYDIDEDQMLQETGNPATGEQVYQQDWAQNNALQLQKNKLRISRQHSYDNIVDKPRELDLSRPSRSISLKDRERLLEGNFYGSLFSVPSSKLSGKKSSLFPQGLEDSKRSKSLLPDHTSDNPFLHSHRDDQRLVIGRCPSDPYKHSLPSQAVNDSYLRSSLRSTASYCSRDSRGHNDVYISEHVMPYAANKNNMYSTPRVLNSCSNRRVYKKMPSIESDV
Automated Patch-Clamp System (OPatch HTX):
In this study, HEK 293 cells stably transfected with glutamate-activated channels of the GRIN1/2A subtype will be used together with submaximal NMDA concentrations (300 μM NMDA, co-application with 8 μM Glycine) to investigate the negative allosteric modulation of the test compounds.
In general, cells will be passaged at a confluence of about 80% to […]. For electrophysiological measurements cells will be harvested at a confluence of about 80% to 90% from sterile culture flasks containing culture complete medium. Cells will be transferred as suspension in PBS to the QPatch 16X or QPatch HTX system to the centrifuge/washer directly.
Standard Laboratory Conditions: Cells will be incubated at 37° C. in a humidified atmosphere with 5% CO2 (rel. humidity about 95%).
Culture media: The cells will be continuously maintained in and passaged in sterile culture flasks containing a 1:1 mixture of Dulbecco's modified eagle medium and nutrient mixture F-12 (D-MEM/F-12 1×, liquid, with L-Glutamine) supplemented with 10% fetal bovine serum, 1% Penicillin/Streptomycin solution, and 50 μM AP-5 blocker.
Antibiotics: The complete medium as indicated above is supplemented with 100 μg/mL hygromycin, 15 μg/mL blasticidin and 1 μg/mL puromycin.
Induction of Expression: 2.5 μg/mL tetracycline is added 24 h before start of experiments.
Dose levels are in terms of test compounds, as supplied. Vehicle will be added to achieve a stock concentration of 10 mM (storage at −10° C. to −30° C.). A further stock solutions of 1.0 mM will be prepared in DMSO. Details of stock solution usage (thawing, dose formulations) will be documented in the raw data. The time period of stock solution usage will be detailed in the report.
Test Compound Concentrations
One test concentration of 1.0 μM will be tested.
All test solutions will be prepared by diluting the stock solutions with either Mg-free bath solution only or Mg-free bath solution containing NMDA (300 μM) and glycine (8.0 μM) shortly prior to the electrophysiological experiments and kept at room temperature (19° C. to 30° C.) when in use. 0.1% DMSO will be used as vehicle.
Frequency of preparation: For each test concentration, fresh solutions of test compounds will be prepared every day.
Stability of dose formulation: All preparation times will be documented in the raw data. Any observations regarding instability of test compounds will be mentioned in the raw data.
Storage of dose formulation: On the day of experimentation dose formulations will be maintained at room temperature (19° C. to 30° C.) when in use.
For preparing the experiments and for formation of the giga-ohm-seal, the following standard bath solution will be used:
Sodium Chloride: 137 mM; Potassium Chloride: 4 mM; Calcium Chloride: 1.8 mM; Magnesium Chloride: 1 mM; HEPES: 10 mM; D-Glucose: 10 mM; Cremophor: 0.02%; pH (NaOH): 7.4
The 1× bath solution will be prepared by diluting 10× bath solution without Glucose and 100× Glucose solution with water at least every 7 days. Both stock solutions have been prepared prior to the experimental start of the present study and stored at 1° C. to 9° C. (10× bath solution) or −10° C. to −30° (100× Glucose solution). The batch number(s) of the bath solution(s) used in the experiments will be documented in the raw data. When in use, the 1× bath solution will be kept at room temperature (19° C. to 30° C.). When not in use, the 1× bath solution will be stored at 1° C. to 9° C.
After the giga-seal was formed the following Mg-free bath solution will be used:
Sodium Chloride: 137 mM; Potassium Chloride: 4 mM; Calcium Chloride; 2.8 mM; HEPES: 10 mM; D-Glucose: 10 mM; Cremophor: 0.02%; pH (NaOH): 7.4 […]
In general terms: Patch clamp records ionic current or voltage across a cell membrane.

Assay [2] concerns the target GluN1/GluN2A glutamate receptors (human GRIN1/GRIN2A) expressed in HEK293 cells (Homo sapiens (Human), UniProt Q05586+Q12879). The assay can be described thus: Whole-cell patch clamp of mammalian cells (Ionworks Barracuda), positive allosteric modulation, GluN1/GluN2A. As to conditions: for Emax: read-out: GluN2A PCA EMax (%). As for the experimental part:
as §1
(§2) The measurements were performed using Ion Works Barracuda platform following this procedure:
(§3) Electrophysiological Procedures: • a) Intracellular solution (mM): 50 mM CsCl, 90 mM CsF, 2 mM MgCl2, 5 mM EGTA, 10 mM HEPES. Adjust to pH 7.2 with CsOH. • b) Extracellular solution, HB-PS (composition in mM): NaCl, 137; KCl, 1.0; CaCl2, 5; HEPES, 10; Glucose, 10; pH adjusted to 7.4 with NaOH (refrigerated until use). • c) Holding potential: −70 mV, potential during agonist/PAM application: −40 mV.
(§4) Recording Procedure: • a) Extracellular buffer will be loaded into the PPC plate wells (11 μL per well). Cell suspension will be pipetted into the wells (9 μL per well) of the PPC planar electrode. • b) Whole-cell recording configuration will be established via patch perforation with membrane currents recorded by on-board patch clamp amplifiers. • c) Two recordings (scans) will be performed. First, during pre-application of test article alone (duration of pre-application—5 min) and second, during test articles and agonist (EC20 L-glutamate and 30 μM glycine) co-application to detect positive modulatory effects of the test article.
(§5) Test Article Administration: The first pre-application will consist of the addition of 20 μL of 2× concentrated test article solution and, second, of 20 μL of 1× concentrated test article and agonist at 10 μL/s (2 second total application time).
(§6) Potentiating Effect of Positive Allosteric Modulators (PAM) on the Channel
(§7) The maximal amplitude of the evoked currents are measured and defined as Peak Current Amplitude (PCA).

Assay [3] concerns the target GluN2B glutamate receptors expressed in mammalian cells (Homo sapiens (Human), UniProt Q05586+Q13224). The assay can be described thus: Whole-cell patch clamp of mammalian cells (Ionworks Barracuda), positive allosteric modulation, GluN2B. The following applies: for Emax: read-out: GluN2B PCA EMax (%). As for the experimental part: as §1, §2, §3, §4, §5, §6, §7

[4] abbreviates: peak current amplitude, co-application with EC20 L-glutamate and 30 μM glycine, HEK293.
The mark [5] stands for this setting: peak current amplitude, co-application with EC20 L-glutamate and 30 μM glycine, read-out: GluN2B PCA EC50.
The mark [6] stands for this setting: peak current amplitude, co-application with EC20 L-glutamate and 30 μM glycine.

Molecules are shown by their SMILES. pEC50: −log10 of the molar value. Where two headings read alike, the source gives them in different places. Bounds are passed on as bounds.

Chain of GluN2B glutamate receptors expressed in mammalian cells (Q13224 27-1484, other chains not shown): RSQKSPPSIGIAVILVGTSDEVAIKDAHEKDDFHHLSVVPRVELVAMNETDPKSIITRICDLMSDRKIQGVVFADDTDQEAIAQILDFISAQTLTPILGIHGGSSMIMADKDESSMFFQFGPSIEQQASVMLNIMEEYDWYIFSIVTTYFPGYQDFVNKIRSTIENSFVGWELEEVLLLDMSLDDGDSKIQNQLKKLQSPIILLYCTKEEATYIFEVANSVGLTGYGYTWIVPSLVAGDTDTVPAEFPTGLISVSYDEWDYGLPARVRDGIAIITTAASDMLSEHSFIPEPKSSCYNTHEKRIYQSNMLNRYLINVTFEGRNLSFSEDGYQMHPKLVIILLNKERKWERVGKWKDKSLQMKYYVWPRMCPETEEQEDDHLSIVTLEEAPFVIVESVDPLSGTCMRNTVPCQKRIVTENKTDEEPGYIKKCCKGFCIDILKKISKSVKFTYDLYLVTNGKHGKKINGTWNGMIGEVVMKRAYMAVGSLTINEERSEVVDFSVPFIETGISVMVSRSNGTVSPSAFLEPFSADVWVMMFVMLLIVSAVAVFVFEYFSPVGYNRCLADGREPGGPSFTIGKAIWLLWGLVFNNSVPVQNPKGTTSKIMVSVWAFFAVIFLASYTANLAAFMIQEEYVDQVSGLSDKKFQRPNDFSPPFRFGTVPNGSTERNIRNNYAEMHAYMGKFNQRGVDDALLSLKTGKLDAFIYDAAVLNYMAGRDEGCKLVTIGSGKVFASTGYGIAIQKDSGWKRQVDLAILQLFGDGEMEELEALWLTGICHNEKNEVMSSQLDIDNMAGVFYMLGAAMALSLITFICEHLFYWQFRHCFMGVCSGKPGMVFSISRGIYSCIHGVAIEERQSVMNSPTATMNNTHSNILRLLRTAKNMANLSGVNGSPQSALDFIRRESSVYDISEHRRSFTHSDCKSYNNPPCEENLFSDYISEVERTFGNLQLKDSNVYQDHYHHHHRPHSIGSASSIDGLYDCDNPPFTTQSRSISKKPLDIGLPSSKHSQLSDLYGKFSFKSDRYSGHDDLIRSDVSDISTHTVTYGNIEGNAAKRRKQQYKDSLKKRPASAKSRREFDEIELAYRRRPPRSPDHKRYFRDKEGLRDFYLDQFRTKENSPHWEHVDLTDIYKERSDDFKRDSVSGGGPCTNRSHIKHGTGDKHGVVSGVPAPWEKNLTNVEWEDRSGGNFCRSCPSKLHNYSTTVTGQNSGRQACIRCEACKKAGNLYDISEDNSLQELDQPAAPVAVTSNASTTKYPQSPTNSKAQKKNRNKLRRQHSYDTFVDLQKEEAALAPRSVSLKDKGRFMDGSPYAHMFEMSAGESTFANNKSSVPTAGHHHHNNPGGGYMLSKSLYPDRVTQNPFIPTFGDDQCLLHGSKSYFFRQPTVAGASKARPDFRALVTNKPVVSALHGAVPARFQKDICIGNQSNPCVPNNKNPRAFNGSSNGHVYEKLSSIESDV
Chain of GluN1/GluN2A glutamate receptors (human GRIN1/GRIN2A) expressed in HEK293 cells (Q12879 whole entry, looked up, other chains not shown): as the sequence (Q12879 whole entry, looked up, other chains not shown) above

In the case of `C[C@@H]([C@H]1CC[C@H]2[C@@H]3CC=C4C[C@](O)(C(F)(F)F)CC[C@]4(C)[C@H]3CC[C@]12C)[C@H](O)C(F)(F)F` [Compound 1, (3S,8S,9S,10R,13S,14S,17R)-10,13-dimethyl-17-((2S,3S)-4,4,4-trifluoro-3-hydroxybutan-2-yl)-3-(trifluoromethyl)-2,3,4,7,8,9,10,11,12,13,14,15,16,17-tetradecahydro-1H-cyclopenta[a]phenanthren-3-ol], the activation at 1 µM in assay [1] is -40 to -10%.

With `COC[C@]1(O)CC[C@@]2(C)[C@@H](CC[C@@H]3[C@@H]2CC[C@]2(C)[C@@H]([C@H](C)[C@H](O)CCC(C)C)CC[C@@H]32)C1` [Compound 2, (3S,5S,8R,9S,10S,13S,14S,17R)-17-((2S,3R)-3-hydroxy-6-methylheptan-2-yl)-3-(methoxymethyl)-10,13-dimethylhexadecahydro-1H-cyclopenta[a]phenanthren-3-ol], the activation at 1 µM in assay [1] was under -40%.

In the case of `CC[C@]1(O)CC[C@@]2(C)[C@@H](CC[C@@H]3[C@@H]2CC[C@]2(C)[C@@H]([C@H](C)[C@@H](O)c4cccnc4)CC[C@@H]32)C1` [Compound 7, (3S,5S,8R,9S,10S,13S,14S,17R)-3-ethyl-17-((1R,2S)-1-hydroxy-1-(pyridin-3-yl)propan-2-yl)-10,13-dimethylhexadecahydro-1H-cyclopenta[a]phenanthren-3-ol], the activation at 1 µM in assay [1] is -10 to 10%. The same measure, in the same setting: to `COC[C@]1(O)CC[C@@]2(C)[C@H](CC[C@@H]3[C@@H]2CC[C@]2(C)[C@@H]([C@H](C)[C@@H](O)C(F)(F)F)CC[C@@H]32)C1` [Compound 9, (3S,5R,8R,9S,10S,13S,14S,17R)-3-(methoxymethyl)-10,13-dimethyl-17-((2S,3R)-4,4,4-trifluoro-3-hydroxybutan-2-yl)hexadecahydro-1H-cyclopenta[a]phenanthren-3-ol] belongs -40 to -10%. For the compound `CC[C@]1(O)CC[C@@]2(C)[C@@H](CC[C@@H]3[C@@H]2CC[C@]2(C)[C@@H]([C@H](C)[C@@H](O)C4CC4)CC[C@@H]32)C1` [Compound 10, (3S,5S,8R,9S,10S,13S,14S,17R)-17-((1S,2S)-1-cyclopropyl-1-hydroxypropan-2-yl)-3-ethyl-10,13-dimethylhexadecahydro-1H-cyclopenta[a]phenanthren-3-ol], the activation at 1 µM in assay [1] was under -40%. Still for that read-out and setting: to `CC[C@]1(O)CC[C@@]2(C)[C@@H](CC[C@@H]3[C@@H]2CC[C@]2(C)[C@@H]([C@H](C)[C@H](O)C(F)(F)F)CC[C@@H]32)C1` [Compound 11, (3S,5S,8R,9S,10S,13S,14S,17R)-3-ethyl-10,13-dimethyl-17-((2S,3S)-4,4,4-trifluoro-3-hydroxybutan-2-yl)hexadecahydro-1H-cyclopenta[a]phenanthren-3-ol] belongs under -40%; to `CC[C@]1(O)CC[C@@]2(C)[C@H](CC[C@@H]3[C@@H]2CC[C@]2(C)[C@@H]([C@H](C)[C@H](O)CCC(C)(C)C)CC[C@@H]32)C1` [Compound 15, (3S,5R,8R,9S,10S,13S,14S,17R)-3-ethyl-17-((2S,3R)-3-hydroxy-6,6-dimethylheptan-2-yl)-10,13-dimethylhexadecahydro-1H-cyclopenta[a]phenanthren-3-ol], -40 to -10%; to `CC[C@]1(O)CC[C@@]2(C)[C@@H](CC[C@@H]3[C@@H]2CC[C@]2(C)[C@@H]([C@H](C)[C@@H](O)C(F)(F)F)CC[C@@H]32)C1` [Compound 16, (3S,5S,8R,9S,10S,13S,14S,17R)-3-ethyl-10,13-dimethyl-17-((2S,3R)-4,4,4-trifluoro-3-hydroxybutan-2-yl)hexadecahydro-1H-cyclopenta[a]phenanthren-3-ol], -40 to -10%. Turning to `CC[C@]1(O)CC[C@@]2(C)C(=CC[C@H]3[C@@H]4CC[C@H]([C@H](C)[C@@H](O)CCC(C)C)[C@@]4(C)CC[C@@H]32)C1` [Compound 77, (3S,8S,9S,10R,13S,14S,17R)-3-ethyl-17-((2S,3S)-3-hydroxy-6-methylheptan-2-yl)-10,13-dimethyl-2,3,4,7,8,9,10,11,12,13,14,15,16,17-tetradecahydro-1H-cyclopenta[a]phenanthren-3-ol], the negative-log EC50 (pEC50) in assay [2] and in assay [3] (setting [5]) was under 6.00 each time. Also, the maximal response (Emax) in assay [2] (setting [4]) and in assay [3] (setting [6]) was under 100% each time. With `C[C@@H]([C@H]1CC[C@H]2[C@@H]3CC[C@H]4C[C@](O)(C(F)(F)F)CC[C@]4(C)[C@H]3CC[C@]12C)[C@@H](O)C[C@@H](O)c1ccccc1` [Compound 79, (1R,3S,4S)-4-((3S,5S,8R,9S,10S,13S,14S,17R)-3-hydroxy-10,13-dimethyl-3-(trifluoromethyl)hexadecahydro-1H-cyclopenta[a]phenanthren-17-yl)-1-phenylpentane-1,3-diol], the negative-log EC50 (pEC50) (commonly the EC50 on a negative log10 scale, so that one unit is a factor of ten) was under 6.00 in assay [2] (peak current amplitude, co-application with EC20 L-glutamate and 30 μM glycine, HEK293, read-out: GluN2A PCA EC50); under 6.00 in assay [3]. For the same compound, the maximal effect (Emax) in assay [2] (setting [4]) and in assay [3] was under 100% in each case.

For the compound `CC[C@]1(O)CC[C@H]2[C@H](CC[C@@H]3[C@@H]2CC[C@]2(C)[C@@H]([C@H](C)[C@@H](O)CCC(C)C)CC[C@@H]32)C1` [Compound 82, (3S,5R,8R,9R,10S,13S,14S,17R)-3-ethyl-17-((2S,3S)-3-hydroxy-6-methylheptan-2-yl)-13-methylhexadecahydro-1H-cyclopenta[a]phenanthren-3-ol], the negative logarithm of the EC50 (pEC50) in assay [2] and in assay [3] (setting [5]) was under 6.00 throughout. Further, the maximum response (Emax) in assay [2] (setting [4]) and in assay [3] (setting [6]) was under 100% in each case.

Source of the values: patent US11613556B2, “Oxysterols and methods of use thereof” (Sage Therapeutics, Inc., priority 2016, dated 2023).
